Entries after “also recorded” stand apart in the source; their conditions may differ.
Tests used:
[1] = test system: Expression Site Body (ESB) and nucleolus of T. brucei; assay: Immunofluorescence microscopy of ESB, VEX1 foci and nucleolus; format: cell-based, Trypanosoma brucei; conditions: for ESB positive cells / cells with an ESB: one hour, G1 cells, untreated 64 ± 17%
Procedure: Trypanosomes were fixed in 2% paraformaldehyde, permeabilised with 0.1% NP-40 for 5 minutes at room temperature before incubation for one hour with an antibody against the nucleolar marker L1C6 [47] or anti-myc tag antibody (clone 4A6, EMD Millipore). Slides were subsequently incubated with a goat anti-mouse secondary antibody coupled to Alexa-594 (Molecular Probes), before mounting in Vectashield containing DAPI (Vector Laboratories). Microscopy was performed using a Zeiss Imager.M1 microscope equipped with a Zeiss AxioCam MRm camera and Axio Vision Rel 4.8 software. A Z-stack of images was taken at 200 nm intervals, and the images from the individual channels were processed using Image J software. For quantitation of ESB signal using YFP, VEX1 signal using the anti-myc tag antibody or nucleolar signal using the L1C6 antibody, the exposure time and contrast was uniformly adjusted across all conditions. Quantification of ESB and nucleolar signal was carried out using compressed stacks of all appropriate channels in which the images acquired on the Z-axis were analysed. The ESB and nucleolar status was recorded for a total of approximately 100 cells in G1 (two biological replicates of approximately 50 cells) for each condition.

T. b. rhodesiense = test system: T. b. rhodesiense; set-up: method as in PMID 20149544; conditions: similar Alamar Blue assay; read-out: IC50 suramin for T. b. rhodesiense; cited from earlier work
[2] = test system: Pol I transcription (rDNA and VSG221 ES precursor transcripts); assay: RNA precursor transcript analysis by qRT-PCR; format: cell-based, Trypanosoma brucei
Procedure: RNA transcript analysis was performed using quantitative reverse transcription PCR (qRT-PCR). Total RNA was isolated using the RNeasy kit (Qiagen) and DNase treated with TURBO DNA-free kit (Invitrogen). Reverse transcription was performed using 100 ng RNA as a template for cDNA synthesis using random hexamer primers (Promega) and the Omniscript RT kit (Qiagen). qPCR was performed on the 7500 Fast Real-Time PCR system (Life Technologies) using Brilliant II SYBR Green QPCR Low ROX Master Mix (Agilent Technologies). DNase treated RNA without reverse transcriptase was used as a control. The amplification conditions for each primer pair were optimised, and the primer sequences are listed in S1 Table. Transcript levels were normalised against actin mRNA, and plotted as relative change relative to the zero hour time point.

[3] = test system: BJ3 human foreskin fibroblast cell line; assay: IncuCyte cell confluence assay, BJ3 fibroblasts; format: cell-based; conditions: for IC50: 48 hours IncuCyte, IC50 for cell death, mean ± SD; for selectivity index for T. brucei vs BJ3 human fibroblasts (Incucyte): IC50 BJ3 cell death / IC50 T. brucei
Procedure: (§1) For the mammalian cell toxicity assays, either the spontaneously immortalised Michigan Cancer foundation (MCF10A) human breast epithelial cell line was used, or the BJ3 cell line, which is a human foreskin fibroblast cell line immortalized with the h-Tert catalytic subunit of telomerase. Cells were seeded in 96-well plates, and after 48 hours each well was treated in quintuplicate using ten different concentrations of CX-5461, quarfloxin, BMH-21 or suramin. After incubation for 48 hours, the cells were imaged and cell confluence was calculated using an IncuCyte ZOOM (Essen Biosciences). Cell confluence was normalised to a drug vehicle only control which was set to 100%. An Alamar Blue assay was also performed on the MCF10A cell line in the presence of the different Pol I transcription inhibitors. Here the Alamar Blue readout was also normalised to the vehicle only control. Experiments were performed as three biological replicates with the exception of the Incucyte data for MCF10A in the presence of BMH-21 and doxycycline which were obtained in duplicate. The dose response curves and IC50s were calculated using GraphPad Prism.
In parallel, the BJ3 human foreskin fibroblast cell line that had been immortalised with hTert (the catalytic subunit of telomerase) was also tested for sensitivity to these compounds [46] (S2 Fig)(S3 Fig). The IC50 values corresponding to either growth arrest or cell death shown in S2 Fig were obtained by observing the cell images (S3 Fig) and determining the point where the specific dose curve plateaus at the higher concentrations. If the cells were morphologically sound, then the dose curve represented growth arrest of the cells. If the cells were dead, then the dose curve represented cell death. The IC50 values for cell death were used to calculate the selectivity index scores.

[4] = test system: MCF10A human breast epithelial cell line; assay: Alamar Blue cytotoxicity assay, MCF10A cells; format: cell-based; conditions: for IC50: 72 hour Alamar Blue, mean ± SD; for T. brucei more sensitive than MCF10A: Alamar Blue IC50s compared; for selectivity index for T. brucei vs MCF10A (Alamar blue): IC50 MCF10A Alamar blue / IC50 T. brucei
Procedure: as §1

[5] = test system: MCF10A human breast epithelial cell line; assay: IncuCyte cell confluence proliferation assay, MCF10A cells; format: cell-based; conditions: for IC50: 48 hour IncuCyte, mean ± SD; for selectivity index for T. brucei vs MCF10A (Incucyte): IC50 MCF10A Incucyte / IC50 T. brucei
Procedure: as §1

[6] = test system: bloodstream form Trypanosoma brucei; assay: Alamar Blue in vitro cytotoxicity assay, T. brucei SM; format: cell-based; conditions: for IC50: 72 hour Alamar Blue, mean ± SD, three biological replicates; for T. brucei more sensitive than human cells (selectivity range): compared with MCF10A and BJ3 human cell lines
Procedure: (§2) For proliferation assays, T. brucei SM was treated with inhibitors, and densities were determined using a Neubauer haemocytometer. Growth curves were repeated minimally in triplicate. For wash-out assays, T. brucei SM was treated with various concentrations of inhibitors. After two hours the cells were washed, resuspended in drug free HMI-9 medium, and cell proliferation was monitored using a haemocytometer. For the Alamar Blue in vitro cytotoxicity assay, 200 μl samples of T. brucei SM cells (2 x 10^3 cells ml^-1) were plated in 96 well plates, and incubated for 72 hours with two fold serial dilutions of the inhibitors. At 72 hours, 20 μl of Resazurin (0.125 mg ml^-1) (Sigma) was added, and the parasites were incubated for a further 18 hours. Fluorescence was measured using a Tecan infinite plate reader (excitation at 530 nm, emission at 585 nm). The change in fluorescence (minus the chemical only control) was plotted as a function of the concentration of chemical compound using the sigmoidal dose-response (variable slope) algorithm using GraphPad Prism version 5.

T. brucei SM [7] = assay: Wash-out assay; format: cell-based, Trypanosoma brucei; conditions: two hours incubation, then wash-out
Procedure: as §2

T. brucei SM [8] = assay: Proliferation assay (growth curves, haemocytometer); format: cell-based, Trypanosoma brucei; conditions: growth over 48 hours
Procedure: as §2

[9] = test system: T. brucei RPA2 Pol I subunit; assay: Western blot of YFP-RPA2 Pol I subunit; format: cell-based, Trypanosoma brucei; conditions: 3 μM, one hour, T. brucei TY-YFP-RPA2
Procedure: (A) The T. brucei TY-YFP-RPA2 cell line was incubated with various concentrations of BMH-21 for the time indicated in hours. As a control, T. brucei was also incubated with 800 nM of suramin. Lysate from 1 x 10^7 cell equivalents was blotted and probed with anti-TY (BB2) antibody. A band corresponding to T. brucei RPA2 is shown, as well as a Ponceau S stain of the blot to serve as a loading control. Size markers in kiloDaltons (kDa) are indicated. (TIF) Click here for additional data file.

| Structure (SMILES) | IC50 ([3]; Homo sapiens, Fibroblast) [µM] | IC50 ([4]; Homo sapiens, MCF-10A) [µM] | IC50 ([5]; Homo sapiens, MCF-10A) [µM] | IC50 ([6]; Trypanosoma brucei) [µM] | reversibility of inhibition of T. brucei proliferation (T. brucei SM [7]) | nucleolar structure (L1C6 marker) ([1]; 3 μM) | cells with an ESB ([1]; 3 μM) | VEX1 signal (ESB marker) ([1]; 3 μM, three hours) | selectivity index for T. brucei vs BJ3 human fibroblasts (Incucyte) [3] | drug concentration that resulted in suppression of proliferative growth in T. brucei (T. brucei SM [8]) [nM] | T. brucei more sensitive than MCF10A [4] [fold] | selectivity index for T. brucei vs MCF10A (Alamar blue) [4] | selectivity index for T. brucei vs MCF10A (Incucyte) [5] | T. brucei more sensitive than human cells (selectivity range) [6] | also measured |
| --- | --- | --- | --- | --- | --- | --- | --- | --- | --- | --- | --- | --- | --- | --- | --- |
| Cc1ccc(C(=O)Nc2ccc(S(=O)(=O)O)c3cc(S(=O)(=O)O)cc(S(=O)(=O)O)c23)cc1NC(=O)c1cccc(NC(=O)Nc2cccc(C(=O)Nc3cc(C(=O)Nc4ccc(S(=O)(=O)O)c5cc(S(=O)(=O)O)cc(S(=O)(=O)O)c45)ccc3C)c2)c1 [Suramin, suramin] | 890 ± 127 | 1640 ± 317 | 1260 ± 90 | 0.063 ± 0.005 |  |  |  |  |  |  |  |  |  |  | nucleolar structure (L1C6 marker) ([1]; 800 nM): did not lead to significant changes in structure of the nucleoli; effect on ESB positive cells ([1]; 800 nM, one to three hours): only a marginal reduction in ESB positive cells; ESB as visualised using epitope tagged VEX1 ([1]; 800 nM, three hours): no specific disintegration of the ESB was observed; IC50 (T. b. rhodesiense): 0.053 µM; effect on Pol I and Pol II derived precursor transcript levels ([2]; 800 nM, 15 minutes): did not lead to reduced levels of any of these transcripts |
| C[C@H]1c2cccc(O)c2C(=O)C2=C(O)[C@]3(O)C(=O)C(C(N)=O)=C(O)[C@@H](N(C)C)[C@@H]3[C@@H](O)[C@@H]21 [Doxycycline, doxycycline] |  | 50.7 ± 33.8 |  |  |  |  |  |  |  |  |  |  |  |  |  |
| CN1CCC[C@H]1CCNC(=O)c1cn2c3c(c(N4CCC(c5cnccn5)C4)c(F)cc3c1=O)Oc1cc3ccccc3cc1-2 (some centres unmarked) [Quarfloxin, quarfloxin] | 2.72 ± 0.17 | 4.44 ± 3.29 | 6.24 ± 3.87 | 0.155 ± 0.009 | irreversibly | nucleoli fragmenting into multiple foci | No cells contained an ESB; also recorded: none of the cells had an ESB | drastically reduced | (18x) | 300 | 29 | (29x) | (40x) | 18-40 fold | ESB positive cells ([1]; 300 nM): 30.5 ± 5%; ESB positive cells ([1]; 1 μM): 7.5 ± 0.7%; VSG221 precursor transcript reduced by ([2]; 1 μM, 15 minutes): 94.5 ± 1.9%; VSG pseudogene transcript reduced by ([2]; 1 μM, 15 minutes): 92.3 ± 1.6%; pre-rRNA Precursor 1 transcript levels reduced by (primer a) ([2]; 1 μM, 15 minutes): 98.5 ± 0.66%; rRNA Precursor 2 decreased by (primer b) ([2]; 1 μM, 15 minutes): 91.3 ± 2.6%; rRNA Precursors 2 and 3 reduced by (primer pair c) ([2]; 1 μM, 15 minutes): 83.4 ± 2.1%; rRNA Precursors 2 and 3 reduced by (primer pair d) ([2]; 1 μM, 15 minutes): 89.5 ± 2.7%; Pol II derived tubulin precursor transcript level ([2]; 1 μM, fifteen minutes): 129 ± 10.3 % normal |
| Cc1cnc(CNC(=O)c2c(=O)c3ccc(N4CCCN(C)CC4)nc3n3c2sc2ccccc23)cn1 [CX-5461] | 9.78 ± 0.79 | 6.89 ± 4.83 | 7.84 ± 9.8 | 0.279 ± 0.016 | irreversibly | nucleoli fragmenting into multiple foci | 4.5 ± 0.7% | drastically reduced | (35x) | 1000 | 25 | (25x) | (28x) | 25-35 fold | repression of Pol I transcription ([2]; 1 μM, 15 minutes): specific knockdown of Pol I transcripts |
| CN(C)CCNC(=O)c1cccn2c(=O)c3cc4ccccc4cc3nc12 [BMH-21] |  |  |  |  |  | nucleoli fragmenting into multiple foci | 1 ± 1.4% | drastically reduced | (10x) | 300 | 3.4 | (3.4x) | (4.6x) | 3-10 fold | degradation of the RPA2 Pol I subunit [9]: we did not see evidence for degradation of the RPA2 Pol I subunit; IC50 [3]: 1.36 ± 0.22 µM; IC50 [4]: 0.46 ± 0.08 µM; IC50 [5]: 0.622 ± 0.34 µM; IC50 [6]: 0.134 ± 0.008 µM |
